This note sets out measurements from PubChem BioAssay AID330 (DTP/NCI, 2004).

Where “and” joins values, the source holds several entries; their conditions need not be identical. Identical values can stand only once. Toxic doses and inconclusive results are not listed. Numbered stars: 1 amine (or outer) side, 2 acyl side, 3 side chain; on linkers, the order of the positions; unused ones are H or OH. Bridge positions count the residues as written; N and C are the ends. Square brackets hold non-standard residues; d marks the D form. Peptide text beside a SMILES is read from it. I, II: the chains in the order shown. Actinocin(9to1) = Cc1c2oc3c(C)ccc(C(=O)[*:1])c3nc-2c(C(=O)[*:2])c(N)c1=O; NMeV = CN[CH](C(=O)O)C(C)C; Sar = CNCC(=O)O

The test deals with P388 leukemia ip, CD2F1 mice, survival T/C. Kind of test: NCI In Vivo Anticancer Drug Screen. Data for tumor model P388 Leukemia (intraperitoneal) in CD2F1 (CDF1) mice. Particulars: endpoint: median survival time, higher = longer survival. The method in brief: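 Mice carrying the transplanted tumor received test compound or vehicle. Survival was recorded in each group, and the value is the treated-group measurement divided by that of the vehicle-treated control group.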

[1] abbreviates: dose: 50.0 mg/kg/injection, schedule: Q01DX005 (ip), vehicle: Klucel (hydroxypropylcellulose) (HPC).
[2] abbreviates: dose: 100.0 mg/kg/injection, schedule: Q01DX005 (ip), vehicle: Klucel (hydroxypropylcellulose) (HPC).
[3] abbreviates: dose: 200.0 mg/kg/injection, schedule: Q01DX005 (ip), vehicle: Klucel (hydroxypropylcellulose) (HPC).
Setting [4] is: dose: 60.0 mg/kg/injection, schedule: Q01DX005 (ip), vehicle: saline with Tween-80.
The mark [5] stands for this setting: dose: 50.0 mg/kg/injection, schedule: Q01DX009 (ip), vehicle: Klucel (hydroxypropylcellulose) (HPC).
The mark [6] stands for this setting: dose: 50.0 mg/kg/injection, schedule: Q01DX009 (ip), vehicle: saline with Tween-80.
Setting [7] is: dose: 100.0 mg/kg/injection, schedule: Q01DX009 (ip), vehicle: saline with Tween-80.
Setting [8] is: dose: 50.0 mg/kg/injection, schedule: Q04DX003 (ip), vehicle: saline with Tween-80.
Setting [9] is: dose: 100.0 mg/kg/injection, schedule: Q04DX003 (ip), vehicle: saline with Tween-80.
Setting [10] is: dose: 200.0 mg/kg/injection, schedule: Q04DX003 (ip), vehicle: saline with Tween-80.

As to `CC(C)n1cccc(C#N)c1=S`, the T/C is, setting by setting: under setting [1], 101 % of control; under setting [2], 98 % of control; under setting [3], 97 % of control.
In the case of `Cc1cccc(OCCOC(=O)Nc2cccc(C(F)(F)F)c2)c1`, the T/C was 99 % of control under setting [4]; 96 % of control (dose: 120.0 mg/kg/injection, schedule: Q01DX005 (ip), vehicle: saline with Tween-80); 96 % of control (dose: 240.0 mg/kg/injection, schedule: Q01DX005 (ip), vehicle: saline with Tween-80).
As for `CCCCCCCCCCCCOC(=O)c1ccc(OP(=O)(O)OCc2ccccc2)cc1`, the T/C is 104 % of control (dose: 12.5 mg/kg/injection, schedule: Q01DX009 (ip), vehicle: Klucel (hydroxypropylcellulose) (HPC)); 121 % of control (dose: 25.0 mg/kg/injection, schedule: Q01DX009 (ip), vehicle: Klucel (hydroxypropylcellulose) (HPC)); 103 % of control and 115 % of control under setting [5].
For `O=C1CSC(C2CC=CCC2)N1c1nncs1` (stereo not given), the T/C by setting is: (dose: 50.0 mg/kg/injection, schedule: Q01DX005 (ip), vehicle: saline with Tween-80) 100 % of control; (dose: 100.0 mg/kg/injection, schedule: Q01DX005 (ip), vehicle: saline with Tween-80) 91 % of control; (dose: 200.0 mg/kg/injection, schedule: Q01DX005 (ip), vehicle: saline with Tween-80) 90 % of control.
Turning to `Cc1c2oc3c(C)ccc(C(=O)NC4C(=O)NC(C(C)C)C(=O)N5CCCC5C(=O)N(C)CC(=O)N(C)C(C(C)C)C(=O)OC4C)c3nc-2c(C(=O)NC2C(=O)NC(C(C)C)C(=O)N3CCCC3C(=O)N(C)CC(=O)N(C)C(C(C)C)C(=O)OC2C)c(N)c1=O` (stereo not given) (I: TVP[Sar][NMeV] / II: TVP[Sar][NMeV]; ester I:1-I:C, II:1-II:C; linker I:N-II:N via Actinocin(9to1); configuration not given here), the T/C is 178 % of control (dose: 0.1 mg/kg/injection, schedule: Q01DX009 (ip), vehicle: distilled water + Tween-80); 190 % of control (dose: 0.2 mg/kg/injection, schedule: Q01DX009 (ip), vehicle: distilled water + Tween-80); 151 % of control (dose: 0.2 mg/kg/injection, schedule: Q01DX009 (ip), vehicle: water); 207 % of control (dose: 0.4 mg/kg/injection, schedule: Q01DX009 (ip), vehicle: distilled water + Tween-80); 174 % of control (dose: 0.4 mg/kg/injection, schedule: Q01DX009 (ip), vehicle: water).
As to `COC(=O)CC(C(=O)CSC(S(=O)(=O)c1ccccc1)S(=O)(=O)c1ccccc1)C(=O)OC` (stereo not given), the T/C was 99 % of control under setting [1], 101 % of control under setting [2] and 100 % of control under setting [3].
On to `CC(C)c1ccc(C(CC(=O)c2ccccc2)C(C(=O)O)c2ccccc2)cc1` (stereo not given), for which the T/C reads like this: under setting [5], 97 % of control; (dose: 100.0 mg/kg/injection, schedule: Q01DX009 (ip), vehicle: Klucel (hydroxypropylcellulose) (HPC)) 89 % of control; (dose: 200.0 mg/kg/injection, schedule: Q01DX009 (ip), vehicle: Klucel (hydroxypropylcellulose) (HPC)) 89 % of control.
For the molecule `O=C(O)c1cc2c(Cl)cccc2[nH]1`, the T/C is, setting by setting: (dose: 25.0 mg/kg/injection, schedule: Q01DX009 (ip), vehicle: saline with Tween-80) 90 % of control; under setting [6], 90 % of control; under setting [7], 90 % of control.
With `Nc1nnn(/N=C\c2ccccc2)n1`, the T/C under setting [1] was 92 % of control and the T/C under setting [2] is 92 % of control.
Consider `COc1ccc(C(C)N(C)C)cc1` (stereo not given), for which the T/C is, setting by setting: (dose: 50.0 mg/kg/injection, schedule: Q01DX001 (ip), vehicle: other) 101 % of control; (dose: 100.0 mg/kg/injection, schedule: Q01DX001 (ip), vehicle: other) 99 % of control and 103 % of control; (dose: 200.0 mg/kg/injection, schedule: Q01DX001 (ip), vehicle: other) 98 % of control.
For the molecule `COC(=O)c1ccccc1-c1ccccc1C=O`, the T/C reads like this: (dose: 100.0 mg/kg/injection, schedule: Q04DX002 (ip), vehicle: saline with Tween-80) 97 % of control; (dose: 200.0 mg/kg/injection, schedule: Q04DX002 (ip), vehicle: saline with Tween-80) 98 % of control; (dose: 400.0 mg/kg/injection, schedule: Q04DX002 (ip), vehicle: saline with Tween-80) 100 % of control.
On to `CN=C(N)c1ccc(N=C(N)c2ccc(-c3ccc(C(N)=Nc4ccc(C(N)=NC)cc4)cc3)cc2)cc1`, for which the T/C was 154 % of control (dose: 18.0 mg/kg/injection, schedule: Q01DX009 (ip), vehicle: saline); 91 % of control (dose: 625.0 micrograms/kg/injection, schedule: Q01DX009 (ip), vehicle: saline with Tween-80); 108 % of control (dose: 1250.0 micrograms/kg/injection, schedule: Q01DX009 (ip), vehicle: saline with Tween-80); 108 % of control (dose: 2500.0 micrograms/kg/injection, schedule: Q01DX009 (ip), vehicle: saline with Tween-80).
In the case of `Cc1ccc(N=C(N)N/N=C/c2ccc3c(c2)Cc2ccccc2-3)cc1`, the T/C is 106 % of control (dose: 25.0 mg/kg/injection, schedule: Q04DX002 (ip), vehicle: saline with Tween-80) and 107 % of control (dose: 50.0 mg/kg/injection, schedule: Q04DX002 (ip), vehicle: saline with Tween-80).
With `CCCCC1CN1C(=N)OCC` (stereo not given), the T/C was 100 % of control (dose: 15.0 mg/kg/injection, schedule: Q01DX005 (ip), vehicle: saline with Tween-80); 100 % of control (dose: 25.0 mg/kg/injection, schedule: Q01DX005 (ip), vehicle: saline); 96 % of control (dose: 30.0 mg/kg/injection, schedule: Q01DX005 (ip), vehicle: saline with Tween-80); 101 % of control and 95 % of control under setting [4].
Take `Cc1cc(=O)n2c(nc3cc(C(=O)c4ccccc4)ccc32)s1`: the T/C (dose: 50.0 mg/kg/injection, schedule: Q01DX001 (ip), vehicle: Klucel (hydroxypropylcellulose) (HPC)) was 101 % of control; the T/C (dose: 100.0 mg/kg/injection, schedule: Q01DX001 (ip), vehicle: Klucel (hydroxypropylcellulose) (HPC)) was 98 % of control; the T/C (dose: 200.0 mg/kg/injection, schedule: Q01DX001 (ip), vehicle: Klucel (hydroxypropylcellulose) (HPC)) was 100 % of control.
For the molecule `O=C1OC2(CCCC2)OC(=O)C1=C/C=C/c1ccc([N+](=O)[O-])o1`, the T/C was 99 % of control under setting [8]; 100 % of control and 114 % of control and 96 % of control under setting [9]; 102 % of control and 112 % of control and 96 % of control under setting [10]; 103 % of control and 121 % of control and 86 % of control (dose: 400.0 mg/kg/injection, schedule: Q04DX003 (ip), vehicle: saline with Tween-80); 115 % of control (dose: 800.0 mg/kg/injection, schedule: Q04DX003 (ip), vehicle: saline with Tween-80).
`COc1cccc(C(=O)C(CN(C)C)CN(C)C)c1`: the T/C (dose: 3.12 mg/kg/injection, schedule: Q01DX009 (ip), vehicle: saline) was 100 % of control and 105 % of control; the T/C (dose: 3.13 mg/kg/injection, schedule: Q01DX009 (ip), vehicle: saline) was 106 % of control; the T/C (dose: 6.25 mg/kg/injection, schedule: Q01DX009 (ip), vehicle: saline) was 103 % of control and 115 % of control and 97 % of control; the T/C (dose: 12.5 mg/kg/injection, schedule: Q01DX009 (ip), vehicle: saline) was 108 % of control and 112 % of control and 123 % of control; the T/C (dose: 25.0 mg/kg/injection, schedule: Q01DX009 (ip), vehicle: saline) was 103 % of control and 123 % of control.
Regarding `Cc1ccc(/C=N\N=C\c2ccc(C)cc2)cc1`, the T/C by setting is: under setting [6], 100 % of control; under setting [8], 91 % of control; under setting [7], 90 % of control; under setting [9], 87 % of control; (dose: 200.0 mg/kg/injection, schedule: Q01DX009 (ip), vehicle: saline with Tween-80) 90 % of control; under setting [10], 91 % of control.
With `COc1cc2cc3c4cc(OC)c(OC)cc4cc(C)[n+]3cc2cc1OC`, the T/C by setting is: (dose: 12.5 mg/kg/injection, schedule: Q01DX009 (ip), vehicle: water) 155 % of control; (dose: 25.0 mg/kg/injection, schedule: Q01DX009 (ip), vehicle: water) 180 % of control; (dose: 50.0 mg/kg/injection, schedule: Q01DX009 (ip), vehicle: water) 170 % of control; (dose: 100.0 mg/kg/injection, schedule: Q01DX009 (ip), vehicle: water) 163 % of control.
Consider `COC(=O)C1=C(N)SS/C1=C/[N+](=O)[O-]`, for which the T/C under setting [1] was 106 % of control, the T/C under setting [2] is 103 % of control and the T/C under setting [3] is 101 % of control.
